{
  "source": "paper PMC10465960",
  "about": "(Acta Pharmaceutica Sinica. B, 2023)",
  "target": "Trx-A-NMt-PCP (module 2 of the Sas17 NRPS protein) (Streptomyces calvus, UniProt A0A514JVM2)",
  "sequence (A0A514JVM2 1553-2567)": "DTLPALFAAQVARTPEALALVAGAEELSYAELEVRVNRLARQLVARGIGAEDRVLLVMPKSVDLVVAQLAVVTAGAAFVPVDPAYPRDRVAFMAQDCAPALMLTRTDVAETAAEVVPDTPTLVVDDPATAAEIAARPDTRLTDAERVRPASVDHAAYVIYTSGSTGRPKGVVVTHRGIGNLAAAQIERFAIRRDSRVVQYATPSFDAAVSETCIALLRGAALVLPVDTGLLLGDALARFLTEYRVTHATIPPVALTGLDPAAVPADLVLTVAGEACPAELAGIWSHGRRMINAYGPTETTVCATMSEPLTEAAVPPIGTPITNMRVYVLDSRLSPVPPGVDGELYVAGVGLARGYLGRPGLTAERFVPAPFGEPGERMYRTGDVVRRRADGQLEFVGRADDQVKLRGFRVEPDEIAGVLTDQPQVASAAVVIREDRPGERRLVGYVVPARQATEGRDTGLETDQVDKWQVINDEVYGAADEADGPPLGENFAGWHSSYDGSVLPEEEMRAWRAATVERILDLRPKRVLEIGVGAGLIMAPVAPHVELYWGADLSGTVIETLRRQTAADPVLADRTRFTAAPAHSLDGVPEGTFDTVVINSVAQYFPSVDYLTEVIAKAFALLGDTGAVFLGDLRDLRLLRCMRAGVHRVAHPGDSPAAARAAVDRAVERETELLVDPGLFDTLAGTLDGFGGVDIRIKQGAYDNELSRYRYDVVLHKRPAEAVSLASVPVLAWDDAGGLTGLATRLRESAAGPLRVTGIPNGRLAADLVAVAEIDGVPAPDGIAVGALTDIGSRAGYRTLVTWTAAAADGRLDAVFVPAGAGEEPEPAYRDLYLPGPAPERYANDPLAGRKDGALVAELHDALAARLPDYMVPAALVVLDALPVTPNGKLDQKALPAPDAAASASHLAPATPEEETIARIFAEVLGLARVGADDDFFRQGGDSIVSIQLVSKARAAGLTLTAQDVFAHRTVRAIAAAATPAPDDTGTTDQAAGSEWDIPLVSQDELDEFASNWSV",
  "details": "NMt domain; methyl donor for PCP-bound Tyr; 5 mM SAM, 1 h",
  "data": [
    {"smiles": "C[S+](CC[C@H](N)C(=O)O)C[C@H]1O[C@@H](n2cnc3c(N)ncnc32)[C@H](O)[C@@H]1O", "note": "(stereo partly shown) [SAM]", "values": [
      {"measurement": "LC-MS of methylamine-cleaved PCP thioester", "value": "Reconstitution of the Mt domain using SAM then led to the methylation of the PCP-bound"}
    ]}
  ]
}
